Values after ≈ are worked out from the molar mass of the structure shown. Read-outs that look alike come from different tables or passages of the source.
Experiments:
in vitro = test: in vitro
Method: (§1) U-937 promonocytes (CRL1593.2™) were obtained from the American Type Culture Collection (ATCC, Manassas, VA, USA), cultured in complete medium containing RPMI 1640 medium (Sigma) supplemented with 10% fetal bovine serum (FBS) (Gibco, Life Technologies, Grand Island, NY, USA) and 1% antibiotics (100 U/mL penicillin and 0.1 mg/mL streptomycin) (Sigma). Cells were maintained in standard conditions at 37 °C, 5% CO2 with change of medium every three days until use.
(§2) The cytotoxicity of compounds was assessed based on the viability of U-937 cells and evaluated by the MTT (3-(4,5-dimethylthiazol-2-yl)-2,5-diphenyltetrazolium bromide) method as described by others. Briefly, into each well of a 96-well cell-culture dishes 100,000 cells/100 μL were dispensed in RPMI-1640 supplemented with 10% FBS and 100 μL of the corresponding concentrations of the corresponding product. Six two fold serial dilutions were tested starting at 200 µg/mL (200, 100, 50, 25, 12.5 and 6.25 μg/mL). Cells were incubated at 37 °C with 5% CO2 for 72 h in the presence of compounds, and then the effect was determined by measuring the activity of the mitochondrial dehydrogenase by adding 10 µL/well of MTT solution (0.5 mg/mL) and incubating at 37 °C for 3 h. The reaction was stopped by adding 100 μL /well of 50% isopropanol solution with 10% sodium dodecyl sulfate for 30 min. Cell growth was determined based on the quantity of formazan produced, which was measured at 570 nm in a plate reader spectrophotometer (Bio-Rad, Hercules, CA, USA). Cells cultured in the absence of products were used as cell growth controls (negative control), while cells cultured in presence of amphotericin B (AmB, Sigma) and meglumine antimoniate (MA, Sanofi-Aventis, Bogotá, Colombia) were used as cytotoxicity controls (positive control). Each concentration was tested in triplicate in at least two independent experiments.
(§3) Cytotoxicity was determined according to the percentages of cell growth (viability) obtained for each tested compound or medium alone. Percentages of viability were calculated first using Equation (1): % Viability = (O.D. of treated cells)/(O.D. of untreated cells) × 100(1) where the O.D. of the untreated cells corresponds to 100% viability. Then, the percentage of cell growth inhibition was calculated using Equation (2): % Cell growth inhibition = 100 − % Viability(2)
(§4) The degree of cytotoxicity was established as convenient according to the LC50 values, using our own scale: high cytotoxicity: LC50 < 100 μg/mL, moderate cytotoxicity: 100 μg/mL < LC50 < 200 μg/mL; and potential non-cytotoxicity: LC50 > 200 μg/mL.

[1] = test system: intracellular amastigotes of L. (V) panamensis-pIR-eGFP; test: organism not typed; format: cell-based; details: for EC50: U-937, 72 h, read-out: Intracellular Amastigotes EC50; for degree of leishmanicidal activity, intracellular amastigotes: authors' own scale by EC50
Method: (§5) Virulent L. (V) panamensis MHOM/CO/87/UA140 strain transfected with green fluorescent protein gene called L. (V) panamensis-pIR-eGFP was maintained by successive passaging in golden hamsters (Mesocricetus auratus). Briefly, amastigotes were aspirated from cutaneous lesions of hamsters experimentally infected with promastigotes of L. (V) panamensis-pIR-eGFP. Samples were cultured in biphasic culture with Novy-MacNeal-Nicholle (NNN) medium as solid phase and PBS plus glucose, pH 6.9 as liquid phase and incubated at 26 °C to obtain promastigotes. Medium was changed every week until 2 months.
Intracellular amastigotes were obtained after infection of U-937 cells with promastigotes. Briefly, U-937 cells were dispensed in 24-well plates at a concentration of 300,000 cells/well and were treated with 1 µM of phorbol myristate acetate (PMA) (Sigma) for 48 h at 37 °C. Then, cells were infected with promastigotes in stationary growth phase (day 5) at a ratio of 1:15 cell/parasite and incubated for 3 h at 34 °C in 5% CO2. […] After 24 h of infection, cells were ready to be used in antileishmanial testing assay as described below.
The effect of compounds against intracellular amastigotes of L. (V) panamensis-pIR-eGFP was evaluated by flow cytometry using the methodology described by others. […] Infected and treated cells were maintained at 34 °C and 5% CO2 for 72 h. After 72 h, cells were washed twice with 1 mL of cold PBS and cells were removed from the bottom plate with a trypsin/EDTA ([…]) solution. Recovered cells were centrifuged at 1100 rpm for 10 min at 4 °C, the supernatant was discarded and cells were washed with 1 mL of cold PBS and centrifuged at 1100 rpm for 10 min at 4 °C. Supernatant was discarded and cells were suspended in 500 μL of PBS and analyzed by flow cytometry (FC 500MPL, Cytomics, Brea, CA, USA) using histogram analyses (Figure 2). […] Each concentration of compounds was tested in triplicate in two independent experiments.
The antileishmanial activity in intracellular amastigotes was determined according to the reduction of infected cells and parasite load (viable parasites inside infected cells) obtained for each experimental condition. The percentage of infected cell inhibition and parasite load for each concentration of each compound were calculated first using Equation (3): % infection = (% infected and treated cells ÷ % infected and untreated cells) × 100(3)
And then, the percentage of infection inhibition was calculated using Equation (4): % Inhibition = 100 − % infection(4)

[2] = test system: axenic amastigotes of L. (V) panamensis; test: organism not typed; format: cell-based; details: for EC50 / Axenic Amastigotes EC50: 72 h, mean ± standard deviation; for degree of leishmanicidal activity, axenic amastigotes: authors' own scale by EC50
Method: as §5
The axenic amastigotes were obtained from promastigotes cutured in Schneider’s medium, as described elsewhere. Briefly, promastigotes of L. (V) panamensis-pIR-eGFP at 5 × 10^6 parasites/mL were cultured in Schneider medium (Sigma), pH 5.4 supplemented with 20% FBS and 1% antibiotics and incubation at 26 °C. Every three days, medium was changed and temperature was increased one degree each time until it reached 32 °C at which the transformation of the promastigotes into axenic amastigotes is achieved. After three days of growing as axenic amastigotes, parasites were ready to be used in the antileishmanial testing assay as described below.
The ability of compounds to kill axenic amastigotes of L. (V) panamensis was determined based on the viability of the parasites after exposure to each compound evaluated by the MTT method following the methodology described by others. Axenic amastigotes obtained as described above were harvested, washed, and adjusted at 2 × 10^6 parasites/mL in fresh Schneider’s medium with 20% FBS. Into each well of a 96-well plate 100 µL of parasite suspension (2 × 10^5 axenic amastigotes) were dispensed and then 100 µL of each concentration of the corresponding compound were added. […] Plates were incubated at 32 °C. After 72 h of incubation, the effect of each compound was determined by adding 10 µL/well of MTT and incubating at 32 °C for 3 h. The reaction was stopped as described above and the quantity of formazan produced was measured in a plate reader spectrophotometer (Bio-Rad) set at 570 nm. Axenic amastigotes cultivated in the absence of any compound but maintained under the same conditions were used as controls for growth and viability (negative control) while parasites cultivated in the presence of MA were used as controls for leishmanicidal activity (positive control). Assays were performed at least twice with three replicates per each concentration tested.
In turn, activity of compounds with axenic amastigotes was determined according to the reduction of parasite growth percentages obtained for each experimental condition. The percentage of parasite growth was calculated first using Equation (5): % parasite growth = (O.D. treated ax. amastigotes)/(O.D. of untreated ax. amastigotes) × 100(5) where the O.D. of the untreated axenic amastigotes corresponds to 100% parasite growth. Then, the percentage of parasite growth inhibition was calculated using Equation (6): % parasite growth inhibition = 100 − % parasite growth(6)

U-937 cells = test: in vitro; details: U-937 cells
Method: as §1, §2, §3, §4

[3] = L. (V) panamensis in U-937 cells, flow cytometry, 72 h, mean ± standard deviation
[4] = L. (V) panamensis axenic amastigotes, MTT, read-out: Axenic Amastigotes EC50
[5] = L. (V) panamensis axenic amastigotes, MTT

C[C@@H]1[C@H](O)[C@@H](C)/C=C/C=C/C=C/C=C/C=C/C=C/C=C/[C@H](O[C@@H]2O[C@H](C)[C@@H](O)[C@H](N)[C@@H]2O)C[C@@H]2O[C@](O)(C[C@@H](O)C[C@@H](O)[C@H](O)CC[C@@H](O)C[C@@H](O)CC(=O)O[C@H]1C)C[C@H](O)[C@H]2C(=O)O [AmB, Amphotericin B, reference compound]
CC50 at 72 h (in vitro; human): 28.2 ± 0.5 µg/mL (≈ 30.5 µM)

C[N+](C)(C)CCC=C(c1ccccc1)c1ccccc1.[I-] [Compound 3a, N,N,N-Trimethyl-N-(4,4-diphenylbut-3-en-1-yl)ammonium iodide]
CC50 at 72 h (in vitro): 39.2 ± 4.8 µg/mL
EC50 [1, 3]: 30 ± 1.4 µg/mL
degree of leishmanicidal activity, intracellular amastigotes [1]: moderate (moderate activity: 25 μg/mL < EC50 < 50 μg/mL)
EC50 [2, 4]: 25 ± 0.7 µg/mL
degree of leishmanicidal activity, axenic amastigotes [2]: high (high leishmanicidal activity: EC50 < 25 μg/mL)

C[N+](C)(CCl)CCCC=C(c1ccccc1)c1ccccc1.[I-] [Compound 1b, N-Chloromethyl-N,N-dimethyl-N-(5,5-diphenylpent-4-en-1-yl)ammonium iodide]
CC50 at 72 h (in vitro): 21 ± 2 µg/mL
EC50 [1, 3]: 46.8 ± 1.2 µg/mL
EC50 [2, 4]: 56.3 ± 3.7 µg/mL

C[N+](C)(CCl)CCCCC=C(c1ccccc1)c1ccccc1.[I-] [Compound 1c, N-Chloromethyl-N,N-dimethyl-N-(6,6-diphenylhex-5-en-1-yl)ammonium iodide]
CC50 at 72 h (in vitro): 21 ± 0.5 µg/mL
EC50 [1, 3]: 49.4 ± 3.1 µg/mL
EC50 [2, 4]: 40.5 ± 3.3 µg/mL

C[N+](C)(CI)CCCC=C(c1ccccc1)c1ccccc1.[I-] [Compound 2b, N-Iodomethyl-N,N-dimethyl-N-(5,5-diphenyl-4-penten-1-yl)ammonium iodide]
CC50 at 72 h (in vitro): 10.1 ± 0.2 µg/mL
EC50 [1, 3]: 24 ± 0.7 µg/mL
EC50 [2, 4]: 19.7 ± 1.5 µg/mL

C[N+](C)(CCl)CCC=C(c1ccccc1)c1ccccc1.[I-] [Compound 1a, N-Chloromethyl-N,N-dimethyl-N-(4,4-diphenylbut-3-en-1-yl)ammonium iodide]
CC50 at 72 h (in vitro): 44.4 ± 4.9 µg/mL
EC50 [1, 3]: 38.4 ± 0.2 µg/mL
EC50 [2, 4]: 35 ± 5.7 µg/mL

C[N+](C)(CI)CCO [Compound 4b, N-Iodomethyl-N,N-dimethyl-N-(2-hydroxyet-1-yl)ammonium iodide]
CC50 at 72 h (in vitro): 17.8 ± 0.2 µg/mL
EC50 [1, 3]: 23.9 ± 1 µg/mL
EC50 [2, 4]: 19.6 ± 1.8 µg/mL

C[N+](C)(C)CCCC=C(c1ccccc1)c1ccccc1.[I-] [Compound 3b, N,N,N-Trimethyl-N-(5,5-diphenylpent-4-en-1-yl)ammonium iodide]
CC50 at 72 h (in vitro): 27.2 ± 0.7 µg/mL
EC50 [1, 3]: 24.7 ± 1.9 µg/mL
EC50 [2, 4]: 25 ± 0.5 µg/mL

C[N+](C)(CI)CCCCC=C(c1ccccc1)c1ccccc1.[I-] [Compound 2c, N-Iodomethyl-N,N-dimethyl-N-(6,6-diphenylhex-5-en-1-yl)ammonium iodide]
CC50 at 72 h (in vitro): 9.5 ± 0.3 µg/mL
EC50 [1, 3]: 17.6 ± 1 µg/mL
EC50 [2, 4]: 14 ± 0.9 µg/mL

C[N+](C)(CI)CCC=C(c1ccccc1)c1ccccc1.[I-] [Compound 2a, N-Iodomethyl-N,N-dimethyl-N-(4,4-diphenylbut-3-en-1-yl)ammonium iodide]
CC50 at 72 h (in vitro): 46 ± 5.4 µg/mL
EC50 [1, 3]: 27.8 ± 3.9 µg/mL
EC50 [2, 4]: 36.2 ± 0.1 µg/mL

meglumine antimoniate [MA, reference compound]
Cytotoxicity LC50 (U-937 cells; MTT, 72 h, mean ± standard deviation): 358.2 ± 1.7 µg/mL
degree of cytotoxicity (U-937 cells; authors' own scale by LC50): potentially non-cytotoxic
Intracellular Amastigotes EC50 [1, 3]: 6.33 ± 0.86 µg/mL
Axenic Amastigotes EC50 [2, 5]: 312.1 ± 18.6 µg/mL
degree of leishmanicidal activity, axenic amastigotes [2]: not active

C[N+](C)(CCl)CCO [Compound 4a, N-Choromethyl-N,N-dimethyl-N-(2-hydroxyet-1-yl)ammonium iodide]
CC50 at 72 h (in vitro): 17.9 ± 0.02 µg/mL
EC50 [1, 3]: 29.6 ± 2.8 µg/mL
degree of leishmanicidal activity, intracellular amastigotes [1]: moderate (moderate activity: 25 μg/mL < EC50 < 50 μg/mL)
EC50 [2, 4]: 24.3 ± 1.3 µg/mL
degree of leishmanicidal activity, axenic amastigotes [2]: high (high leishmanicidal activity: EC50 < 25 μg/mL)

C[N+](C)(C)CCCCC=C(c1ccccc1)c1ccccc1.[I-] [Compound 3c, N,N,N-Trimethyl-N-(6,6-diphenylhex-5-en-1-yl)ammonium iodide]
CC50 at 72 h (in vitro): 12.5 ± 0.8 µg/mL
EC50 [1, 3]: 41.6 ± 2.8 µg/mL
EC50 [2, 4]: 34.1 ± 5.1 µg/mL

C[N+](C)(C)CCO.[I-] [Compound 4c, (2-Hydroxyethyl)trimethylammonium iodide, reference compound]
CC50 at 72 h (in vitro): 372 ± 43.1 µg/mL
EC50 [1]: 150 ± 17.9 µg/mL
degree of leishmanicidal activity, intracellular amastigotes [1]: almost no activity
EC50 ([2]; read-out: Axenic Amastigotes EC50, L. (V) panamensis axenic amastigotes, MTT, 72 h): < 50 µg/mL
Axenic Amastigotes EC50 [2, 5]: 47.2 ± 7.1 µg/mL
degree of leishmanicidal activity, axenic amastigotes [2]: moderate activity

Reference: publication PMC6273649, “Synthesis of Novel Quaternary Ammonium Salts and Their in Vitro Antileishmanial Activity and U-937 Cell Cytotoxicity” (Molecules, 2016)
